Legend:
soybean lipoxygenase = biological target: T1, soybean lipoxygenase (Glycine max, UniProt P08170); test: Inhibition of soybean lipoxygenase; format: biochemical; details: for inhibition at 100 µM: read-out: LOX % Inhibition 100 μM; for IC50: cells of the mixed column with μM, read-out: LOX IC50
T1 construct: purchased Sigma Aldrich- Merck KGaA, Darmstadt, Germany
T1 sequence (P08170 1-839): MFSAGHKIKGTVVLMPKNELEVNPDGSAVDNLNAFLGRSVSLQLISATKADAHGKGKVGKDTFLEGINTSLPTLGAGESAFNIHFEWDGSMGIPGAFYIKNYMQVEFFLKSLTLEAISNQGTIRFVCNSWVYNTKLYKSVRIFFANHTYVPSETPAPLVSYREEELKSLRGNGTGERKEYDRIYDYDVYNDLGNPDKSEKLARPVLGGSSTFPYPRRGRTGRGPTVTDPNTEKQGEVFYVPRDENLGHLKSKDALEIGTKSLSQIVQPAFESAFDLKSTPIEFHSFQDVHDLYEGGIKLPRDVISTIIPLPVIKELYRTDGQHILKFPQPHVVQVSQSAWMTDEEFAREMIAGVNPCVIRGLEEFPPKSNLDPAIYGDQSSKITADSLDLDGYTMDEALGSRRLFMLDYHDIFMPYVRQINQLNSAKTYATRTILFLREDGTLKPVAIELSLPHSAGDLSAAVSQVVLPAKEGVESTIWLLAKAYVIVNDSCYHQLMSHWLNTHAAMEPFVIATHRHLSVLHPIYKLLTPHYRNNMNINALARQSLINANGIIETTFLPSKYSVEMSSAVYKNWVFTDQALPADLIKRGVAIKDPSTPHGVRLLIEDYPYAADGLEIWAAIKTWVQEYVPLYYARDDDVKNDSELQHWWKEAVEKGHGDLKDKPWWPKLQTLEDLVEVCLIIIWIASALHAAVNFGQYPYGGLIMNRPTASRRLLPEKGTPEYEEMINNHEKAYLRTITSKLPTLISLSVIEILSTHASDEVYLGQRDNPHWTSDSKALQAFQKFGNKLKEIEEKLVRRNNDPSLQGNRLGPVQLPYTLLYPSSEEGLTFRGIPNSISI
Excerpt: Lipoxygenase (LOX) is the key enzyme in the biosynthesis of inflammatory mediators; thus, it is considered a target for inflammatory diseases. Soybean LOX is a plant enzyme that has been used widely as a prototype for studying the functional and structural properties of the homologous family of lipoxygenases, presenting satisfactory homology with the human 5-LOX [42]. Linoleic acid is the most common substrate in plant LOX. […] Lipophilicity is considered one of the most important parameters with regard to LOX inhibitors according to the literature.
In vitro study was performed as reported previously by our group. In this experiment, 10 μL of the tested compound (from the stock solution) were incubated with 100 μL sodium linoleate (diluted in Tris buffer), 200 μL LOX solution (1:9 × 10^−4 w/v in saline) and 690 μL Tris buffer (pH 9.0) at room temperature. The absorbance was measured at 234 nm, where the change of absorbance was recorded due to the formation of 13-hydroperoxy-linoleic acid. […] In order to determine the IC50 values, different concentrations were used.

[1] = 100 μM, cells of the mixed column without μM

Compound | inhibition at 100 µM (soybean lipoxygenase; [1]) | IC50 (soybean lipoxygenase) | melting point | LOX % Inhibition 100 μM (soybean lipoxygenase; [1])
O=C(/C=C/c1ccccc1)c1ccccc1 [Compound 1a, (E)-1,3-diphenylprop-2-en-1-one] | 26% | – | – | –
O=C(/C=C/c1ccccc1)c1ccc(Cl)cc1 [Compound 1b, (E)-1-(4-chlorophenyl)-3-phenylprop-2-en-1-one] | 39% | – | – | –
O=C(/C=C/c1cccs1)c1ccc(Cl)cc1 [Compound 1d, (E)-1-(4-chlorophenyl)-3-(thiophen-2-yl)prop-2-en-1-one] | – | 72.5 µM | – | –
O=C(/C=C/c1ccc(Cl)cc1)c1ccccc1 [Compound 1e, (E)-3-(4-chlorophenyl)-1-phenylprop-2-en-1-one] | – | 55.5 µM | – | –
O=C(/C=C/c1ccc(Cl)cc1)c1ccc(Cl)cc1 [Compound 1f, (E)-1,3-bis(4-chlorophenyl)prop-2-en-1-one] | 4% | – | 160 to 162 °C | –
O=C(/C=C/c1ccc(Cl)cc1Cl)c1ccccc1 [Compound 1g, (E)-3-(2,4-dichlorophenyl)-1-phenylprop-2-en-1-one] | – | 17 µM | 68 to 70 °C | –
O=C(/C=C/c1ccc(Cl)cc1Cl)c1ccc(Cl)cc1 [Compound 1h, (E)-1-(4-chlorophenyl)-3-(2,4-dichlorophenyl)prop-2-en-1-one] | – | – | – | no
O=c1[nH]c(=S)[nH]c2nc(-c3ccccc3)cc(-c3ccccc3)c12 [Compound 2a, 5,7-diphenyl-2-thioxo-2,3-dihydropyrido [2,3-d]pyrimidin-4(1H)-one] | – | 42 µM | > 300 °C | –
O=c1[nH]c(=S)[nH]c2nc(-c3ccc(Cl)cc3)cc(-c3ccccc3)c12 [Compound 2b, 7-(4-chlorophenyl)-5-phenyl-2-thioxo-2,3-dihydropyrido [2,3-d]pyrimidin-4(1H)-one] | 6% | – | > 300 °C | –
O=c1[nH]c(=S)[nH]c2nc(-c3ccccc3)cc(-c3cccs3)c12 [Compound 2c, 7-phenyl-5-(thiophen-2-yl)-2-thioxo-2,3-dihydropyrido [2,3-d]pyrimidin-4(1H)-one] | – | 68.5 µM | 260 to 262 °C | –
O=c1[nH]c(=S)[nH]c2nc(-c3ccc(Cl)cc3)cc(-c3cccs3)c12 [Compound 2d, 7-(4-chlorophenyl)-5-(thiophen-2-yl)-2-thioxo-2,3-dihydropyrido [2,3-d]pyrimidin-4(1H)-one] | – | 70 µM | > 300 °C | –
O=c1[nH]c(=S)[nH]c2nc(-c3ccccc3)cc(-c3ccc(Cl)cc3)c12 [Compound 2e, 5-(4-chlorophenyl)-7-phenyl-2-thioxo-2,3-dihydropyrido [2,3-d]pyrimidin-4(1H)-one] | – | 76 µM | > 300 °C | –
O=c1[nH]c(=S)[nH]c2nc(-c3ccc(Cl)cc3)cc(-c3ccc(Cl)cc3)c12 [Compound 2f, 5,7-bis(4-chlorophenyl)-2-thioxo-2,3-dihydropyrido [2,3-d]pyrimidin-4(1H)-one] | – | 47.5 µM | > 300 °C | –
O=c1[nH]c(=S)[nH]c2nc(-c3ccccc3)cc(-c3ccc(Cl)cc3Cl)c12 [Compound 2g, 5-(2,4-dichlorophenyl)-7-phenyl-2-thioxo-2,3-dihydropyrido [2,3-d]pyrimidin-4(1H)-one] | – | 54 µM | > 300 °C | –
O=c1[nH]c(=S)[nH]c2nc(-c3ccc(Cl)cc3)cc(-c3ccc(Cl)cc3Cl)c12 [Compound 2h, 7-(4-chlorophenyl)-5-(2,4-dichlorophenyl)-2-thioxo-2,3-dihydropyrido [2,3-d]pyrimidin-4(1H)-one] | 27% | – | 274 to 276 °C | –

Reference: article PMC10180197, “Novel Pyrimidine Derivatives as Antioxidant and Anticancer Agents: Design, Synthesis and Molecular Modeling Studies” (Molecules, 2023)
